Test results taken from patent US8846316B2, “Biomarker for human liver cancer” (Industrial Technology Research Institute, priority 2012, dated 2014).

Tested on: miR-129-2 expression
Experiment: miR-129-2 expression by qRT-PCR after 5-aza-cytidine treatment of HCC cells
Type: cell-based, human
Details: 5 μM 5-azaC for 3 days
Method: Hepatoma cell lines, HepG2, HuH7, J7, Hep3B, Mahlavu and SK-Hep-1 were maintained in Dulbecco's modified Eagle's medium at 37° C. in a humidified, 5% CO2 incubator. Twenty-four hours prior to treatment, HuH7 cells (1×10^5 cells/well) and other hepatoma cells (3×10^5 cells/well) were seeded into 6-well plates. Cells were treated with 5 μM 5-azaC (Sigma) for 3 days. Culture medium was replaced every 24 hours with fresh media containing 5-azaC.
Total RNA of hepatoma cells and HCC clinical samples was extracted using TRIzol reagent (Invitrogen). cDNA synthesis was performed with Superscript III reverse transcriptase according to the manufacturer's instructions (Invitrogen). Real-time quantitative polymerase chain reaction was performed on the ABI Prism 7000 sequence detection System using the SYBR Green PCR master mix (Applied Biosystems). For analysis of mature miRNA expression, TaqMan miRNA assay system (Applied Biosystems) was used as the manufacturer's manual. The relative expression level was analyzed by the ΔΔCt method, and U6 and RNU44 were used as an internal control.
In order to evaluate whether miR-129-2 expression was regulated by DNA methylation, the expression level of miR-129-2 between normal liver cells and HCC cells was examined by quantitative reverse transcription PCR.

Question: How did the “miR-129-2 expression level elevated compared with untreated cell” value (HuH7 cell) turn out when Nc1ncn([C@@H]2O[C@H](CO)[C@@H](O)[C@H]2O)c(=O)n1 [5-aza-cytidine] was run?
Answer: 2.5 fold

Question: What about the “miR-129-2 expression level elevated compared with untreated cell” value (J7 cell) of the same compound?
Answer: 16 fold
